The values that follow come from ChEMBL document CHEMBL1146608, “Design and synthesis of pseudo-symmetric HIV protease inhibitors containing a novel hydroxymethylcarbonyl (HMC)-hydrazide isostere” (Bioorg Med Chem Lett, 2003).

Test [1] has as its target Human immunodeficiency virus type 1 protease (Human immunodeficiency virus 1, UniProt Q72874). The test is described as follows: Inhibitory activity against HIV-1 protease.
The subject of test [2] is MT4. The test is described as follows: Cytotoxic effect against HIV-IIIB strain in MT-4 cells. It is filed as functional. The note with it: Homo sapiens, read-out: TD50 (the source's name).
Test [3] relates to MT4. As to the kind of experiment: Inhibitory concentration against HIV-IIIB strain in MT-4 cells. It is filed as functional, cell-based. The note with it: Homo sapiens.
Test [4] in a line: Selectivity index expressed as ratio of TD50 to EC50. Format: functional.

Broadly, the Ki is the equilibrium dissociation constant of an inhibitor or competing ligand from its target. Read a high Ki as weaker binding. What is called EC50 is the concentration giving half of the maximal effect. In test [1], `CSC[C@H](NC(=O)OCc1cccc2cnccc12)C(=O)N[C@@H](Cc1ccccc1)[C@H](O)C(=O)N(Cc1ccccc1)NC(=O)COc1c(C)cccc1C` displayed an inhibition constant Ki of 0.25 nM. For the same compound, in the test on MT4 [2], the CC50 is more than 100 nM. In the test on MT4 [3], this compound returned an EC50 of 1.9 nM. For the same compound, the Therapeutic index in test [4] was more than 53.
For `Cc1c(O)cccc1C(=O)N[C@@H](Cc1ccccc1)[C@@H](O)C(=O)N(Cc1ccccc1)NC(=O)c1cccc(O)c1C`, in that order: 0.16 nM, 91 nM, 1.6 nM and 57.
`Cc1cccc(C)c1OCC(=O)NN(Cc1ccccc1)C(=O)[C@@H](O)[C@H](Cc1ccccc1)NC(=O)c1cccc(O)c1C`: in test [1], the Ki is 5.8 nM. Besides, in the test with MT4 [2], the CC50 worked out at 12 nM. This compound displayed a 50% effective concentration (EC50) with MT4 [3] of 1.8 nM. Besides, the Therapeutic index in test [4] was determined as 6.7.
`Cc1cc(N)cc(C)c1OCC(=O)N[C@@H](Cc1ccccc1)[C@H](O)C(=O)N(Cc1ccccc1)NC(=O)c1cccc(O)c1C`: the affinity in test [1], expressed as Ki, was 5 nM. Also, in the test with MT4 [2], the CC50 is 35 nM. The compound also returned a 50% effective concentration (EC50) in the test on MT4 [3] of 0.48 nM. Also, in test [4], the Therapeutic index is 73.
In the same order, the values of `Cc1cccc(C)c1OCC(=O)N[C@@H](Cc1ccccc1)[C@H](O)C(=O)N(Cc1ccccc1)NC(=O)c1cccc(O)c1C` are 3 nM, 12 nM, 1.1 nM and 11.
Compound `Cc1c(O)cccc1C(=O)N[C@@H](Cc1ccccc1)[C@H](O)C(=O)N(Cc1ccccc1)NC(=O)c1cccc(O)c1C` came in with a Ki in test [1] of 15 nM. The CC50 with MT4 [2] worked out at 73 nM. For the same compound, the half-maximal effective concentration (EC50) in the test with MT4 [3] was found to be 1.1 nM. In test [4], the Therapeutic index turned out to be 66.
The compound `CSC[C@H](NC(=O)OCc1cccc2cnccc12)C(=O)N[C@@H](Cc1ccccc1)[C@H](O)C(=O)N(Cc1ccccc1)NC(=O)c1cccc(O)c1C` returned a Ki in test [1] of 0.47 nM. The CC50 with MT4 [2] is 23 nM. The 50% effective concentration (EC50) with MT4 [3] was determined as 0.4 nM. In addition, the Therapeutic index in test [4] was 58.
